Reference: patent US20140235548A1, “COMPOSITIONS AND METHODS FOR JAMM PROTEIN INHIBITION” (Cleave Biosciences, Inc., priority 2011, published 2014)
Read-outs that look alike come from different tables or passages of the source. Where a SMILES comes first, the peptide text is derived from it. The star is where a group is joined. Cbz = O=C(OCc1ccccc1)*

What was measured:
Rpn11 [1] = target: T1, Rpn11 (Homo sapiens, UniProt O00487); assay: Ub^G76V-GFP proteasome reporter degradation in HeLa cells (Rpn11 activity in cells); format: cell-based; conditions: cycloheximide, 90 min at 37° C., quantitative fluorescence microscopy, read-out: IC50, level of remaining Ub^G76V-GFP
Rpn11 [2] = target: T1, Rpn11; assay: Rpn11 fluorescence polarization assay with 26S proteasome and Ub4-peptide-Oregon Green substrate; format: biochemical
Excerpt: As seens in FIG. 4A) the Rpn11 substrate consisted of six histidine residues followed by four ubiquitin sequences fallowed by the peptide sequence […]. The Oregon Green fluorophore was attached to the cysteine residue via maleimide chemistry. Following cleavage of the substrate by Rpn11, the product […] coupled to Oregon Green was released. The change in molecular weight of Oregon Green containing protein was detected by fluorescence polarization. The Rpn11 reaction can he inhibited with compound 1. In FIG. 4(B) progress curves for product generation by 26S proteasome (which contains Rpn11). Rpn11 cleaves the substrate immediately after the fourth ubiquitin (Ub). 5 nM Ub-Ub-Ub-Ub-peptide-oregon green substrate was incubated with 0.5 nM purified 26S proteasome for 120 min at room temperature. As labeled peptide is liberated, the fluorescence polarization diminishes. The cleavage reaction can be inhibited by the o-phenanthroline. In FIG. 4(C-E) dose-response curve for inhibition of Rpn11 by compound 1 (C), 3-hydroxy-4H-pyran-4-thione (D) or o-phenanthroline (E) were generated by adding varying doses of compound to the reaction mixture. At 120 minutes, fluorescence polarization was measured. Percent activity was calculated based on the amount of enzyme activity observed in the absence of added test agent.
An 8-point compound 001 dose titration curve was performed, by incubating Rpn11-containing 26S proteasome, Rpn11 substrate and compound (dose range 50 μM to 0.1 μM) and monitoring fluorescence polarization as per BIOEXAMPLE 4. Remaining activity as compared to DMSO control (% activity) was calculated and plotted versus compound 1 concentration and the curve was fit to a four-parameter fit model to obtain an IC50 value.

CSN5 [3] = target: T2, CSN5 (Homo sapiens, UniProt Q92905); assay: Csn5 fluorescence polarization assay: release of Nedd8OG from Cul1-Nedd8OG / SCF^Skp2-Nedd8OG by CSN; format: biochemical
[4] = tested on: neddylated forms of Cullins 1, 2, and 4A; assay: Accumulation of neddylated Cullins 1, 2 and 4A in HEK-293T cells (immunoblot); format: cell-based, human; conditions: 15 min at 37° C.
Protocol: Test compounds include Compound 1 (“Test Compound 1”), Compound 101 (“Test Compound 2”), and MLN4924 (“Comparison Compound”; Sulfamic acid, [(1S,2S,4R)-4-[4-[[(1S)-2,3-dihydro-1H-inden-1-yl]amino]-7H-pyrrolo[2,3-d]pyrimidin-7-yl]-2-hydroxycyclopentyl]methyl ester; CAS Reg. No. 905579-51-3). Human HEK-293T cells were treated with 100 μM compound 1, 100 μM compound 101, 3 μM MLN4924 or 1% DMSO for 15 min. at 37° C. At the end of the incubation, cells were harvested and lysed. All cell lysates were fractionated by SDS-PAGE, proteins were transferred to nitrocellulose, and Cu11, Cu12 and Cu14 was detected by immunoblotting with an antibody that recognizes human Cu11, Cu12 or Cu14. Cu11-N8: human Cu11 modified with Nedd8. Cu12-N8: human Cu12 modified with Nedd8. Cu14-N8: human Cu14 modified with Nedd8.

AMSH-LP = target: T3, AMSH-LP (Homo sapiens, UniProt Q96FJ0); assay: AMSH-LP assay: di-ubiquitin K63 cleavage to mono-ubiquitin (SDS-PAGE, anti-ubiquitin blot); format: biochemical; conditions: AMSH-LP 50 nM, di-ubiquitin K63 1 μM, 20 hours at room temperature; read-out: approximate IC50, mono-ubiquitin product formation
T3 sequence (Q96FJ0 1-436): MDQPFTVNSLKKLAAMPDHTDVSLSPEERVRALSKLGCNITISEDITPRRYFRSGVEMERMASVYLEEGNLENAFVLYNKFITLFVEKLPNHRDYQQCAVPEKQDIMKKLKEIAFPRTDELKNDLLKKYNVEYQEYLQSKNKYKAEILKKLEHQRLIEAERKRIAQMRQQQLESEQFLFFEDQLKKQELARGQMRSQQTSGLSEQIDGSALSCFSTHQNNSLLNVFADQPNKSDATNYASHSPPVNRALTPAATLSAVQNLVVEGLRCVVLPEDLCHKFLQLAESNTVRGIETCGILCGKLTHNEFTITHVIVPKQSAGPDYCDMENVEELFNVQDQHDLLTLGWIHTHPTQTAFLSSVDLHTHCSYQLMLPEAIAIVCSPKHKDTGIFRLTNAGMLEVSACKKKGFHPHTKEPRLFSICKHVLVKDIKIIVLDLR
Excerpt: Formation of product is dependant on the presence of AMSH-LP (lane 1).

CSN5 [5] = target: T2, CSN5; assay: Cell-based Csn5 assay: Cul1 neddylation in HEK-293T cells (immunoblot); design: endogenous in cells; host or cells: HEK-293T; conditions: 30 min, increasing concentration
Protocol: Because cullins undergo a dynamic cycling between neddylated and unneddylated forms by the action of NAE1 and Csn5, respectively, a Csn5 inhibitor will block the removal of Nedd8 from cullin resulting in the accumulation of Nedd8-cullin. HEK-293T cells were treated with compound 001 for 30 min., washed with PBS and lysed in gel loading buffer. Clarified cell lysates (40 μg) were electrophoresed, transferred to nitrocellulose and immunoblotted with α-Cu11 or α-actin sera.

[6] = 0.5 nM 26S proteasome, 5 nM substrate, 120 min, room temperature (FIG. 4C-E), read-out: IC50, inhibition of Rpn11
[7] = Bioexample 16 table, read-out: CSN5 IC50
[8] = Bioexample 16 table, read-out: RPN11 IC50

IC50 (Rpn11 [1])	IC50 (Rpn11 [2]; [6])	IC50 (CSN5 [3]; [7])	IC50 (Rpn11 [2]; [8])	SMILES	other results
590 µM	158 µM			c1cnc2c(c1)ccc1cccnc12 [o-phenanthroline, reference compound]	
		4.1 µM	1.1 µM	Cc1ccc(S)c2ncccc12 [Compound 6]	
		22.2 µM	2.5 µM	Cc1ccnc2c(S)cccc12 [Compound 5]	
	0.6 µM			Oc1coccc1=S [3-hydroxy-4H-pyran-4-thione, reference compound]	
		7.7 µM	1.3 µM	Cc1cnc2c(S)cccc2c1 [Compound 4]	
			0.8 µM	Cc1cc(S)c2ncccc2c1 [Compound 7]	
			6.1 µM	Cc1ccc2cccc(S)c2n1 [Compound 3, 8-SH-2-Me-quinoline]	
				NS(=O)(=O)OC[C@@H]1C[C@@H](n2ccc3c(N[C@H]4CCc5ccccc54)ncnc32)C[C@@H]1O [MLN4924, Sulfamic acid, [(1S,2S,4R)-4-[4-[[(1S)-2,3-dihydro-1H-inden-1-yl]amino]-7H-pyrrolo[2,3-d]pyrimidin-7-yl]-2-hydroxycyclopentyl]methyl ester, reference compound]	conversion of Cu11, Cu12 and Cu14 to Nedd8-modified species ([4]; 3 μM): remain in the non-neddylated form
0.12 µM	3.3 µM		1.1 µM	Sc1cccc2cccnc12 [Compound 1, 8-quinolinethiol]	IC50 (AMSH-LP): ~1600 nM; IC50 (CSN5 [3]; Cop9 signalsome, 8-point titration 100 μM to 0.05 μM, four-parameter fit (FIG. 11), read-out: IC50 on Csn5): 6.5 µM; IC50 (CSN5 [3]; purified CSN, fluorescence polarization, dose escalation (FIG. 2B), read-out: IC50, CSN release of Nedd8OG from Cu11-Nedd8OG): 3.8 µM; conversion of Cu11, Cu12 and Cu14 to Nedd8-modified species ([4]; 100 μM): largely modified with Nedd8; shift of Cu11 between unneddylated and neddylated form (CSN5 [5]): shifts the Cu11 population from the undeddylated to the neddylated form

SMILES	IC50 (Rpn11 [1])	IC50 (Rpn11 [2]; [6])	IC50 (CSN5 [3]; [7])	IC50 (Rpn11 [2]; [8])	other results
CC(C)C[C@@H](C=O)NC(=O)[C@H](CC(C)C)NC(=O)[C@H](CC(C)C)NC(=O)OCc1ccccc1 [MG132, N-(benzyloxycarbonyl)leucinylleucinylleucinal] (Cbz-Leu-Leu-Leu-aldehyde)	0.23 µM				
